In patent publication EP4810038A1, “METHOD FOR TREATING ALK-POSITIVE OR ROS1-POSITIVE NON-SMALL CELL LUNG CANCER” (Shenzhen TargetRx Co., Ltd., priority 2023, dated 2025):
“Also recorded” adds a separate entry of the source.

Test: Phase I clinical trial: safety and tolerability (TRAE, CNS-related AE, DLT, MTD, RP2D)
Assay type: in vivo
Text: An adverse event will be described using MedDRA (Medical Dictionary for Regulatory Activities). Analysis of an adverse event will be based on a treatment emergent adverse event (TEAE). TEAE is defined as an adverse event that occur or worsen after a treatment/medication.
Subjects in all the dose groups received a single dose on day 1 (D1), and the blood samples were collected for pharmacokinetic (PK) assay and tolerability observation. […] The administration frequency for the subjects in the subsequent dose groups after entering the multiple-dose period was determined based on the obtained PK and tolerability data. In this trial, the administration frequency for all the subjects could be adjusted throughout the trial based on the continuously acquired safety and PK data. The four lower dose groups (5 mg, 10 mg, 20 mg and 40 mg) used an accelerated titration design, with one subject enrolled in each dose group. […] The 60 mg dose group and the subsequent dose groups followed a "3+3" dose escalation method, and the MTD was determined. […] During the dose escalation, if a dose group was confirmed to have a preliminary antitumor effect and manageable safety (e.g., no DLT occurred in 3 subjects or only 1 out of 6 subjects experienced DLT), the dose level could be expanded after a discussion and confirmation by the researcher and the sponsor.

[1] = 60mg dose group n=168, any level

[2H]C([2H])([2H])n1nc2c(c1C#N)-c1cnc(N)c(c1)O[C@H](C)c1cc(F)ccc1C(=O)N(C)C2 [compound A, (10R)-7-amino-12-fluoro-2-(methyl-d3)-10,16-dimethyl-15-oxo-10,15,16,17-tetrahydro-2H-8,4-(metheno)pyrazolo[4,3-h][2,5,11]benzoxadiazacyclotetradecine-3-carbonitrile]
Any TRAE [1]: 159 (94.6) number of cases (%)
TRAE Anemia [1]: 26 (15.5) number of cases (%)
TRAE Diarrhea [1]: 8 (8.2) number of cases (%)
TRAE Edema [1]: 45(22.7) number of cases (%)
TRAE Elevated alanine aminotransferase [1]: 14 (8.3) number of cases (%)
TRAE Elevated creatinine [1]: 11 (6.5) number of cases (%)
TRAE Hypercholesterolemia [1]: 131 (78.0) number of cases (%)
TRAE Hypertriglyceridemia [1]: 124 (73.8) number of cases (%)
TRAE Hyperuricemia [1]: 26 (15.5) number of cases (%)
TRAE Hypoproteinemia [1]: 10 (6.0) number of cases (%)
TRAE Increased AST [1]: 18 (10.7) number of cases (%)
TRAE Increased LDL cholesterol [1]: 45 (26.8) number of cases (%)
TRAE Increased creatine phosphokinase [1]: 9 (5.4) number of cases (%)
TRAE Increased glutamine transferase [1]: 9 (5.4) number of cases (%)
TRAE Increased lipase [1]: 12 (7.1) number of cases (%)
TRAE Peripheral neuropathy [1]: 34(20.2) number of cases (%)
TRAE Positive for occult blood in urine [1]: 13 (7.7) number of cases (%)
TRAE Proteinuria [1]: 7 (7.2) number of cases (%)
TRAE Weight gain [1]: 77 (45.8) number of cases (%)
Any TRAE (60mg dose group n=168, ≥3): 61 (36.3%) number of cases (%)
TRAE Anemia (60mg dose group n=168, ≥3): 4 (2.4) number of cases (%)
TRAE Diarrhea (60mg dose group n=168, ≥3): 0 number of cases (%)
TRAE Edema (60mg dose group n=168, ≥3): 2 (1.2) number of cases (%)
TRAE Elevated alanine aminotransferase (60mg dose group n=168, ≥3): 0 number of cases (%)
TRAE Elevated creatinine (60mg dose group n=168, ≥3): 0 number of cases (%)
TRAE Hypercholesterolemia (60mg dose group n=168, ≥3): 17 (10.1) number of cases (%)
TRAE Hypertriglyceridemia (60mg dose group n=168, ≥3): 31 (18.5) number of cases (%)
TRAE Hyperuricemia (60mg dose group n=168, ≥3): 4 (2.4) number of cases (%)
TRAE Hypoproteinemia (60mg dose group n=168, ≥3): 0 number of cases (%)
TRAE Increased AST (60mg dose group n=168, ≥3): 0 number of cases (%)
TRAE Increased LDL cholesterol (60mg dose group n=168, ≥3): 0 number of cases (%)
TRAE Increased creatine phosphokinase (60mg dose group n=168, ≥3): 0 number of cases (%)
TRAE Increased glutamine transferase (60mg dose group n=168, ≥3): 2 (1.2) number of cases (%)
TRAE Increased lipase (60mg dose group n=168, ≥3): 1 (0.6) number of cases (%)
TRAE Peripheral neuropathy (60mg dose group n=168, ≥3): 1 (0.6) number of cases (%)
TRAE Positive for occult blood in urine (60mg dose group n=168, ≥3): 0 number of cases (%)
TRAE Proteinuria (60mg dose group n=168, ≥3): 0 number of cases (%)
TRAE Weight gain (60mg dose group n=168, ≥3): 11 (6.5) number of cases (%)
dose interruption or dose reduction due to treatment-related CNS AEs (198 patients): no dose interruption or dose reduction was observed
most common TRAEs (198 patients): hypercholesterolemia, hypertriglyceridemia, or weight gain
patients with grade ≥ 3 treatment-related CNS AEs (198 patients): 1.0%
Any CNS-related AE (Any level): 18 (9.1) number of cases (%)
CNS-related AE: Anger (Any level): 1 (0.5) number of cases (%)
CNS-related AE: Cognitive impairment (Any level): 1 (0.5) number of cases (%)
CNS-related AE: Depression (Any level): 3 (1.5) number of cases (%)
CNS-related AE: Disorganized speech (Any level): 1 (0.5) number of cases (%)
CNS-related AE: Impact on cognition (Any level): 5 (2.5) number of cases (%)
CNS-related AE: Impact on emotion (Any level): 4 (2.0) number of cases (%)
CNS-related AE: Impact on language (Any level): 2 (1.0) number of cases (%)
CNS-related AE: Impact on sleep (Any level): 7 (4.5) number of cases (%)
CNS-related AE: Insomnia (Any level): 1 (0.5) number of cases (%)
CNS-related AE: Memory impairment (Any level): 3 (1.5) number of cases (%)
CNS-related AE: Mental disorder (Any level): 1 (0.5) number of cases (%)
CNS-related AE: Poor sleep quality (Any level): 6 (4.0) number of cases (%)
CNS-related AE: Speech disorder (Any level): 1 (0.5) number of cases (%)
Any TRAE (In total n=198, any level): 184 (92.9%) number of cases (%)
TRAE Anemia (In total n=198, any level): 27 (13.6) number of cases (%)
TRAE Diarrhea (In total n=198, any level): 13 (6.6) number of cases (%)
TRAE Edema (In total n=198, any level): 51(25.8) number of cases (%)
TRAE Elevated alanine aminotransferase (In total n=198, any level): 18 (9.1) number of cases (%)
TRAE Elevated creatinine (In total n=198, any level): 12 (6.1) number of cases (%)
TRAE Hypercholesterolemia (In total n=198, any level): 154 (77.8) number of cases (%)
TRAE Hypertriglyceridemia (In total n=198, any level): 147 (74.2) number of cases (%)
TRAE Hyperuricemia (In total n=198, any level): 27 (13.6) number of cases (%)
TRAE Hypoproteinemia (In total n=198, any level): 10 (5.1) number of cases (%)
TRAE Increased AST (In total n=198, any level): 20 (10.1) number of cases (%)
TRAE Increased LDL cholesterol (In total n=198, any level): 51 (25.8) number of cases (%)
TRAE Increased creatine phosphokinase (In total n=198, any level): 11 (5.6) number of cases (%)
TRAE Increased glutamine transferase (In total n=198, any level): 10 (5.1) number of cases (%)
TRAE Increased lipase (In total n=198, any level): 19 (9.6) number of cases (%)
TRAE Peripheral neuropathy (In total n=198, any level): 38(19.2) number of cases (%)
TRAE Positive for occult blood in urine (In total n=198, any level): 13 (6.6) number of cases (%)
TRAE Proteinuria (In total n=198, any level): 10 (5.1) number of cases (%)
TRAE Weight gain (In total n=198, any level): 91 (46.0) number of cases (%)
Any TRAE (In total n=198, ≥3): 73 (36.9%) number of cases (%)
TRAE Anemia (In total n=198, ≥3): 4 (2.0) number of cases (%)
TRAE Diarrhea (In total n=198, ≥3): 0 number of cases (%)
TRAE Edema (In total n=198, ≥3): 3(1.5) number of cases (%)
TRAE Elevated alanine aminotransferase (In total n=198, ≥3): 0 number of cases (%)
TRAE Elevated creatinine (In total n=198, ≥3): 0 number of cases (%)
TRAE Hypercholesterolemia (In total n=198, ≥3): 18 (9.1) number of cases (%)
TRAE Hypertriglyceridemia (In total n=198, ≥3): 38 (19.2) number of cases (%)
TRAE Hyperuricemia (In total n=198, ≥3): 4 (2.0) number of cases (%)
TRAE Hypoproteinemia (In total n=198, ≥3): 0 number of cases (%)
TRAE Increased AST (In total n=198, ≥3): 0 number of cases (%)
TRAE Increased LDL cholesterol (In total n=198, ≥3): 0 number of cases (%)
TRAE Increased creatine phosphokinase (In total n=198, ≥3): 0 number of cases (%)
TRAE Increased glutamine transferase (In total n=198, ≥3): 2 (1.0) number of cases (%)
TRAE Increased lipase (In total n=198, ≥3): 1 (0.5) number of cases (%)
TRAE Peripheral neuropathy (In total n=198, ≥3): 1(0.5) number of cases (%)
TRAE Positive for occult blood in urine (In total n=198, ≥3): 0 number of cases (%)
TRAE Proteinuria (In total n=198, ≥3): 0 number of cases (%)
TRAE Weight gain (In total n=198, ≥3): 14 (7.1) number of cases (%)
incidence of other AE, 60 mg dose group versus 80 mg dose group (dose escalation and dose expansion phases): significantly lower
dose-limiting toxicity (DLT) (dose escalation phase, 5 to 125 mg): No DLT was observed; also recorded: No dose-limiting toxicity was observed
MTD (dose escalation up to 125 mg): not reached
Any CNS-related AE (≥3): 2 (1.0) number of cases (%)
CNS-related AE: Anger (≥3): 0 number of cases (%)
CNS-related AE: Cognitive impairment (≥3): 0 number of cases (%)
CNS-related AE: Depression (≥3): 0 number of cases (%)
CNS-related AE: Disorganized speech (≥3): 0 number of cases (%)
CNS-related AE: Impact on cognition (≥3): 1 (0.5) number of cases (%)
CNS-related AE: Impact on language (≥3): 1 (0.5) number of cases (%)
CNS-related AE: Insomnia (≥3): 0 number of cases (%)
CNS-related AE: Memory impairment (≥3): 0 number of cases (%)
CNS-related AE: Mental disorder (≥3): 1 (0.5) number of cases (%)
CNS-related AE: Poor sleep quality (≥3): 0 number of cases (%)
CNS-related AE: Speech disorder (≥3): 1 (0.5) number of cases (%)
